Measured values reported in patent US9469644B2, “Inhibitors of Bruton's tyrosine kinase” (Hoffmann-La Roche Inc., priority 2013, dated 2016).

Target: Bruton's Tyrosine Kinase (BTK), inactivated state (Homo sapiens (Human), UniProt Q06187)
Assay: BTK inhibition TR-FRET competition assay
Assay type: binding
Details: TR-FRET competition with Kinase Tracer 178, 18-24 h at 14° C.
Description: This BTK competition assay measures compound potency (IC50) for the inactivated state of Bruton's Tyrosine Kinase using FRET (Förster/Flouresence Resonance Energy Transfer) technology. The BTK-Eu complex was incubated on ice one hour prior to use at a starting concentration of 50 nM BTK-BioeaseTM: 10 nM Eu-streptavidin (Perkin-Elmer Catalog# AD0062). The assay buffer consisted of 20 mM HEPES (pH 7.15), 0.1 mM DTT, 10 mM MgCl2, 0.5 mg/ml BSA with 3% Kinase Stabilizer (Fremont Biosolutions, Catalog #STB-K02). After 1 h, the reaction mixture from above was diluted 10 fold in assay buffer to make 5 nM BTK: 1 nM Eu-Streptavidin complex (donor fluorophore). 18 μl of a mixture of 0.11 nM BTK-Eu and 0.11 nM Kinase Tracer 178 (Invitrogen, Catalog #PV5593,) with BTK-Eu alone as no negative control, was then dispensed into 384-well flat bottom plates (Greiner, 784076). Compounds to be tested in assay were prepared as 10× concentrations and serial dilution in half-log increments was performed in DMSO so as to generate 10 point curves. To initiate the FRET reaction, compounds prepared as 10× stock in DMSO was added to the plates and the plates were incubated 18-24 h at 14° C. After the incubation the plates were read on a BMG Pherastar Fluorescent plate reader (or equivalent) and used to measure the emission energy from the europium donor fluorophore (620 nm emission) and the FRET (665 nm emission). The negative control well values were averaged to obtain the mean minimum. The positive “no inhibitor” control wells were averaged to obtain the mean maximum. […] The mean IC50 and standard deviation will be derived from duplicate curves (singlet inhibition curves from two independent dilutions) using Microsoft Excel.

Bruton's Tyrosine Kinase (BTK), inactivated state, sequence (Q06187 whole entry): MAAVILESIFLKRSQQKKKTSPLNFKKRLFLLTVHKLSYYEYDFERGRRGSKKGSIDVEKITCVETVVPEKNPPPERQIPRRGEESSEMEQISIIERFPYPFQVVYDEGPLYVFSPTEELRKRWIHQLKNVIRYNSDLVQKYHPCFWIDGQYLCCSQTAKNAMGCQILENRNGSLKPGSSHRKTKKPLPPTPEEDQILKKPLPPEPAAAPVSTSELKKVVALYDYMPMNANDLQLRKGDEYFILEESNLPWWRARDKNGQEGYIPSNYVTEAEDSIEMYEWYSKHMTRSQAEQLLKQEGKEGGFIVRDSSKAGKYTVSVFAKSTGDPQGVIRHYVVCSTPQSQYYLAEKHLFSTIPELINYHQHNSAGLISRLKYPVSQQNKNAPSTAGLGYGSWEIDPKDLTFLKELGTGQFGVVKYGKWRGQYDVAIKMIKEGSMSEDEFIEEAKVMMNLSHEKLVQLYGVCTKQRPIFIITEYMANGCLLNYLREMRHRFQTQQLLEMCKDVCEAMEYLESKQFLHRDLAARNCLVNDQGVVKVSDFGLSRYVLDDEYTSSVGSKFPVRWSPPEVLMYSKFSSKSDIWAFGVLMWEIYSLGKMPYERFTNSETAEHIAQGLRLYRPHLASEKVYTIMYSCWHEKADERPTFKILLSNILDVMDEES

| SMILES | IC50 |
| --- | --- |
| CC(C)(C)c1ccc(C(=O)NC2CCCC(Nc3ncnc4[nH]cnc34)C2)cc1 (stereo not shown) [Compound 1, 4-tert-Butyl-N-[3-(7H-purin-6-ylamino)-cyclohexyl]-benzamide] | 9570 nM |
| O=C(NCc1cccc(Cl)c1)C1CCCC(Nc2ncnc3[nH]cnc23)C1 (stereo not shown) [Compound 2, 3-(9H-Purin-6-ylamino)-cyclohexanecarboxylic acid 3-chloro-benzylamide] | 100000 nM |
| Cn1cc(Nc2nc(NC3CCCCC3)c3nc[nH]c3n2)cn1 [Compound 3, N*6*-Cyclohexyl-N*2*-(1-methyl-1H-pyrazol-4-yl)-9H-purine-2,6-diamine] | 2820 nM |
| CC1CCCC(Nc2nc(Nc3cnn(C)c3)nc3[nH]cnc23)C1 (stereo not shown) [Compound 4, N*6*-(3-Methyl-cyclohexyl)-N*2*-(1-methyl-1H-pyrazol-4-yl)-9H-purine-2,6-diamine] | 40600 nM |

Molecules with a lower IC50, results first:

| IC50 | SMILES |
| --- | --- |
| 56.9 nM | Cn1cc(Nc2nc(NC3CCCC(NC(=O)c4ccc(C(C)(C)C)cc4)C3)c3nc[nH]c3n2)cn1 (stereo not shown) [Compound 5, 4-tert-butyl-N-{3-[2-(1-methyl-1H-pyrazol-4-ylamino)-9H-purin-6-ylamino]-cyclohexyl}-benzamide] |
| 45.3 nM | O=C(NC1CCCC(Nc2ncnc3[nH]cnc23)C1)c1ccccc1 (stereo not shown) [Compound 6] |
| 109 nM | CC(C)(C)OC(=O)NC1CCCC(C(=O)O)C1 (stereo not shown) [Compound 7] |
